# Test results from US12486269B2 (Aconcagua Bio, Inc., priority 2024, dated 2025).
# What was measured:
# [1] = biological target: T1, COS-7/AMY3 (human calcitonin receptor (CTR) and RAMP3) (Homo sapiens, UniProt O60896+P30988); experiment: Amylin Receptor cAMP Assay II; type: cell-based; conditions: values marked **: Amylin Receptor cAMP Assay II; COS-7/AMY3 cells, cAMP dynamic 2 kit, 30 min; read-out: Amylin Receptor cAMP Stimulation Activity: EC50
# T1 construct: expressed in transfected cells; host or cells: COS-7
# In short: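 COS-7 cells stably co-expressing human CTR and RAMP3 (AMY3), 2000 cells/well in HBSS with 20 mM HEPES, 0.5 mM IBMX, 0.1% casein, stimulated with compound for 30 min at 37 °C. cAMP measured by HTRF (665/615 nm), activity normalized between vehicle and maximal control.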
# [2] = biological target: T2, human calcitonin receptor (CTR) (Homo sapiens, UniProt P30988); experiment: Calcitonin Receptor (CTR) cAMP Assay; type: cell-based; conditions: COS7-human CTR Clone #2 stable cell line, cAMP dynamic 2 kit, 30 min; read-out: Calcitonin Receptor cAMP Stimulation Activity: EC50
# T2 construct: expressed in transfected cells; host or cells: COS-7 (COS7-human CTR Clone #2)
# T2 sequence (P30988 25-474): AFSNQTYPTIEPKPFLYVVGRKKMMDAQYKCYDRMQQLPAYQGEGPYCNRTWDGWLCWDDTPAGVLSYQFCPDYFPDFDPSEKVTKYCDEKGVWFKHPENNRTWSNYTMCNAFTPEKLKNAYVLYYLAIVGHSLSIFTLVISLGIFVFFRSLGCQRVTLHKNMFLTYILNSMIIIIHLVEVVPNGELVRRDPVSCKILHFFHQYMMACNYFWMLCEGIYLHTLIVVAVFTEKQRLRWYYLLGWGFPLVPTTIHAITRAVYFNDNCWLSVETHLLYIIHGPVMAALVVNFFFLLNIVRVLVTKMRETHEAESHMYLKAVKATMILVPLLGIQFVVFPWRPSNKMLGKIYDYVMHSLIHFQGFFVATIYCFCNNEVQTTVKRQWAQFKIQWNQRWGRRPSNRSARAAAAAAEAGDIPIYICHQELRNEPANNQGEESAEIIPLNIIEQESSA
# In short: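 COS-7 cells stably expressing human CTR (2000 cells/well) were incubated 30 min at 37 °C with 4-fold serially diluted compound in HBSS/20 mM HEPES/0.5 mM IBMX/0.1% casein. cAMP was detected by HTRF (665/615 nm) after 1 h at RT. % activity was normalised to vehicle and positive controls.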
# T1 sequence (O60896 24-148, one chain of several): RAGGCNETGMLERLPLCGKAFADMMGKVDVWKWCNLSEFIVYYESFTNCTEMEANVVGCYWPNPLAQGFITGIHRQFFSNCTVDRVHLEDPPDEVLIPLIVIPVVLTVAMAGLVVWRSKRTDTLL
SMILES,EC50 [1],EC50 [2]
"COc1cccc2c1CC[C@H]2Nc1nccc2cc(-c3c4c(nc(CCc5ccn6ccnc6c5)c3-c3n[nH]c(=O)o3)[C@@H]3CCCN3C4=O)sc12 [Compound 241, 5-((S)-2-(2-(imidazo[1,2-a]pyridin-7-yl)ethyl)-4-(7-(((R)-4-methoxy-2,3-dihydro-1H-inden-1-yl)amino)thieno[2,3-c]pyridin-2-yl)-5-oxo-7,8,9,9a-tetrahydro-5H-pyrido[2,3-a]pyrrolizin-3-yl)-1,3,4-oxadiazol-2(3H)-one]",33.5 nM,1.72 nM
"COc1cccc2c1CC[C@H]2Nc1nccc2cc(-c3c4c(nc(CCc5ccc(-n6cccn6)cc5)c3-c3n[nH]c(=O)o3)[C@@H]3CCCN3C4=O)sc12 [Compound 243, 5-((S)-2-(4-(1H-pyrazol-1-yl)phenethyl)-4-(7-(((R)-4-methoxy-2,3-dihydro-1H-inden-1-yl)amino)thieno[2,3-c]pyridin-2-yl)-5-oxo-7,8,9,9a-tetrahydro-5H-pyrido[2,3-a]pyrrolizin-3-yl)-1,3,4-oxadiazol-2(3H)-one]",11.2 nM,1.18 nM
"COc1ccc(CCc2nc3c(c(-c4cc5ccnc(N[C@@H]6CCc7c(OC)cccc76)c5s4)c2-c2n[nH]c(=O)o2)C(=O)N2CCC[C@@H]32)cc1F [Compound 244, 5-((S)-2-(3-fluoro-4-methoxyphenethyl)-4-(7-(((R)-4-methoxy-2,3-dihydro-1H-inden-1-yl)amino)thieno[2,3-c]pyridin-2-yl)-5-oxo-7,8,9,9a-tetrahydro-5H-pyrido[2,3-a]pyrrolizin-3-yl)-1,3,4-oxadiazol-2(3H)-one]",22.7 nM,1.16 nM
"COc1cccc2c1CC[C@H]2Nc1nccc2cc(-c3c4c(nc(CCc5cc(F)cs5)c3-c3n[nH]c(=O)o3)[C@@H]3CCCN3C4=O)sc12 [Compound 245, 5-((S)-2-(2-(4-fluorothiophen-2-yl)ethyl)-4-(7-(((R)-4-methoxy-2,3-dihydro-1H-inden-1-yl)amino)thieno[2,3-c]pyridin-2-yl)-5-oxo-7,8,9,9a-tetrahydro-5H-pyrido[2,3-a]pyrrolizin-3-yl)-1,3,4-oxadiazol-2(3H)-one]",19.1 nM,0.469 nM
"O=C1c2c(nc(CCc3ccc(F)cc3)c(-c3n[nH]c(=O)o3)c2-c2cc3ccnc(Cc4coc5ccccc45)c3s2)[C@@H]2CCCN12 [Compound 248, (S)-5-(4-(7-(benzofuran-3-ylmethyl)thieno[2,3-c]pyridin-2-yl)-2-(4-fluorophenethyl)-5-oxo-7,8,9,9a-tetrahydro-5H-pyrido[2,3-a]pyrrolizin-3-yl)-1,3,4-oxadiazol-2(3H)-one]",4200 nM,102 nM
"Cn1cc(Cc2nccc3cc(-c4c5c(nc(CCc6ccc(F)cc6)c4-c4n[nH]c(=O)o4)[C@@H]4CCCN4C5=O)sc23)c2ccccc21 [Compound 249, (S)-5-(2-(4-fluorophenethyl)-4-(7-((1-methyl-1H-indol-3-yl)methyl)thieno[2,3-c]pyridin-2-yl)-5-oxo-7,8,9,9a-tetrahydro-5H-pyrido[2,3-a]pyrrolizin-3-yl)-1,3,4-oxadiazol-2(3H)-one]",62800 nM,857 nM
"COc1cccc2c1CC[C@H]2Nc1nccc2cc(-c3c4c(nc(C[C@@H]5CCc6cc(F)ccc65)c3-c3n[nH]c(=O)o3)[C@@H]3CCCN3C4=O)sc12 [Compound 250, 5-((S)-2-(((S)-5-fluoro-2,3-dihydro-1H-inden-1-yl)methyl)-4-(7-(((R)-4-methoxy-2,3-dihydro-1H-inden-1-yl)amino)thieno[2,3-c]pyridin-2-yl)-5-oxo-7,8,9,9a-tetrahydro-5H-pyrido[2,3-a]pyrrolizin-3-yl)-1,3,4-oxadiazol-2(3H)-one]",102 nM,4.5 nM
"COc1cccc2c1CC(F)(F)[C@@H]2Nc1nccc2cc(-c3c4c(nc(CCc5ccc(F)cc5)c3-c3n[nH]c(=O)o3)[C@@H]3CCCN3C4=O)sc12 [Compound 251, 5-((S)-4-(7-(((R)-2,2-difluoro-4-methoxy-2,3-dihydro-1H-inden-1-yl)amino)thieno[2,3-c]pyridin-2-yl)-2-(4-fluorophenethyl)-5-oxo-7,8,9,9a-tetrahydro-5H-pyrido[2,3-a]pyrrolizin-3-yl)-1,3,4-oxadiazol-2(3H)-one]",82.8 nM,7.28 nM
"CC(c1ccc(C#N)cn1)N1C(=O)C(C)(C)Oc2cc(-c3c4c(nc(CCc5ccc(F)cc5)c3-c3n[nH]c(=O)o3)[C@@H]3CCCN3C4=O)ccc21 (stereo partly drawn) [Compound 252, 6-(1-(7-((S)-2-(4-fluorophenethyl)-5-oxo-3-(5-oxo-4,5-dihydro-1,3,4-oxadiazol-2-yl)-7,8,9,9a-tetrahydro-5H-pyrido[2,3-a]pyrrolizin-4-yl)-2,2-dimethyl-3-oxo-2H-benzo[b][1,4]oxazin-4(3H)-yl)ethyl)nicotinonitrile]",248 nM,7.9 nM

# More lines, now with the values ahead:
EC50 [1],EC50 [2],SMILES
18.4 nM,0.668 nM,"COc1cccc2c1CC[C@H]2Nc1nccc2cc(-c3c4c(nc(CCc5ccc(Cl)cc5)c3-c3n[nH]c(=O)o3)[C@@H]3CCCN3C4=O)sc12 [Compound 242, 5-((S)-2-(4-chlorophenethyl)-4-(7-(((R)-4-methoxy-2,3-dihydro-1H-inden-1-yl)amino)thieno[2,3-c]pyridin-2-yl)-5-oxo-7,8,9,9a-tetrahydro-5H-pyrido[2,3-a]pyrrolizin-3-yl)-1,3,4-oxadiazol-2(3H)-one]"
6.78 nM,0.219 nM,"O=C1c2c(nc(CCc3ccc(F)cc3)c(-c3n[nH]c(=O)o3)c2-c2cc3ccnc(N[C@@H]4CCc5ccc(F)cc54)c3s2)[C@@H]2CCCN12 [Compound 246, 5-((S)-4-(7-(((R)-6-fluoro-2,3-dihydro-1H-inden-1-yl)amino)thieno[2,3-c]pyridin-2-yl)-2-(4-fluorophenethyl)-5-oxo-7,8,9,9a-tetrahydro-5H-pyrido[2,3-a]pyrrolizin-3-yl)-1,3,4-oxadiazol-2(3H)-one]"
2410 nM,21.1 nM,"O=C1c2c(nc(CCc3ccc(F)cc3)c(-c3n[nH]c(=O)o3)c2-c2cc3ccnc(N[C@@H]4CCc5nc(C(F)(F)F)ccc54)c3s2)[C@@H]2CCCN12 [Compound 247, 5-((S)-2-(4-fluorophenethyl)-5-oxo-4-(7-(((R)-2-(trifluoromethyl)-6,7-dihydro-5H-cyclopenta[b]pyridin-5-yl)amino)thieno[2,3-c]pyridin-2-yl)-7,8,9,9a-tetrahydro-5H-pyrido[2,3-a]pyrrolizin-3-yl)-1,3,4-oxadiazol-2(3H)-one]"
1.88 nM,0.0708 nM,"Cc1cc2cc(-c3c4c(nc(CCc5ccc(F)cc5)c3-c3n[nH]c(=O)o3)[C@@H]3CCCN3C4=O)sc2c(N[C@@H]2CCc3cc(F)c(F)cc32)n1 [Compound 253, 5-((S)-4-(7-(((R)-5,6-difluoro-2,3-dihydro-1H-inden-1-yl)amino)-5-methylthieno[2,3-c]pyridin-2-yl)-2-(4-fluorophenethyl)-5-oxo-7,8,9,9a-tetrahydro-5H-pyrido[2,3-a]pyrrolizin-3-yl)-1,3,4-oxadiazol-2(3H)-one]"
0.707 nM,0.0659 nM,"Cc1cc2cc(-c3c4c(nc(CCc5ccc(F)cc5)c3-c3n[nH]c(=O)o3)[C@@H]3COCCN3C4=O)sc2c(N[C@@H]2CCc3cc(F)c(F)cc32)n1 [Compound 254, (R)-4-(7-(((R)-5,6-difluoro-2,3-dihydro-1H-inden-1-yl)amino)-5-methylthieno[2,3-c]pyridin-2-yl)-2-(4-fluorophenethyl)-3-(5-oxo-4,5-dihydro-1,3,4-oxadiazol-2-yl)-7,8,10,10a-tetrahydro-5H-pyrido[2′,3′:3,4]pyrrolo[2,1-c][1,4]oxazin-5-one]"
0.318 nM,0.0127 nM,"Cc1cc2cc(-c3c4c(nc(CCc5ccc(F)cc5)c3-c3n[nH]c(=O)o3)C35CC(CN3C4=O)C5)sc2c(N[C@@H]2CCc3cc(F)c(F)cc32)n1 [Compound 255, (R)-5-(4-(7-((5,6-difluoro-2,3-dihydro-1H-inden-1-yl)amino)-5-methylthieno[2,3-c]pyridin-2-yl)-2-(4-fluorophenethyl)-5-oxo-8,9-dihydro-5H,7H-8,9a-methanopyrido[2,3-a]pyrrolizin-3-yl)-1,3,4-oxadiazol-2(3H)-one]"
12.8 nM,0.33 nM,"COc1c(Cl)cc2c(c1F)CC[C@H]2Nc1nccc2cc(-c3c4c(nc(CCc5ccc(F)cc5)c3-c3n[nH]c(=O)o3)[C@@H]3CCCN3C4=O)sc12 [Compound 256, 5-[(9aS)-4-[7-[[(1R)-6-chloro-4-fluoro-5-methoxy-indan-1-yl]amino]thieno[2,3-c]pyridin-2-yl]-2-[2-(4-fluorophenyl)ethyl]-5-oxo-7,8,9,9a-tetrahydropyrido[2,3-a]pyrrolizin-3-yl]-3H-1,3,4-oxadiazol-2-one]"
